Laboratory results from US7923446B2, “Biaryl sulfonamides and methods for using same” (Wyeth LLC, priority 2003, dated 2011).
Like-named read-outs stand apart in the source and are kept apart here.

Molecular target: T1, purified full-length human recombinant aggrecanase-1 (rAgg1) (Homo sapiens, UniProt O75173)
T1 construct: purified full-length human recombinant aggrecanase-1
T1 sequence (O75173 213-837): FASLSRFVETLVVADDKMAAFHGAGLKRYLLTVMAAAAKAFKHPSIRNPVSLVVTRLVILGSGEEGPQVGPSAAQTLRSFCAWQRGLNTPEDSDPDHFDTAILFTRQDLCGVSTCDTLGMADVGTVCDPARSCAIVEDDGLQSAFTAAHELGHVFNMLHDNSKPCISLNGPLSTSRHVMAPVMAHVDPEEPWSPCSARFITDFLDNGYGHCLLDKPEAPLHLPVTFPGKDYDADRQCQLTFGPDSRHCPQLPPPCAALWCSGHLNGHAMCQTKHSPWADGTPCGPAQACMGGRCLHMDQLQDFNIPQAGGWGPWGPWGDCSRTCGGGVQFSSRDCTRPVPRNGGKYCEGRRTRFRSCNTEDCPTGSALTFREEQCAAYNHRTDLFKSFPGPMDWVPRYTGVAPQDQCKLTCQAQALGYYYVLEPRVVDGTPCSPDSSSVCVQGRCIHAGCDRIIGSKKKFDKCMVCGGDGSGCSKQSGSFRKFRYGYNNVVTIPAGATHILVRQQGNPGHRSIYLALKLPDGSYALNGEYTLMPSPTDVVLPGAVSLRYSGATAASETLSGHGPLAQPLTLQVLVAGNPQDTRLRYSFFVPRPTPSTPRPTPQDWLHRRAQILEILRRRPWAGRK
Assay: Aggrecanase-1 FRET Assay
Format: biochemical

[1] = rAgg1 5 μg/ml, substrate Abz-[…]-Dap(Dnp) 25 μM, 30° C., pH 7.5, read-out: IC50

Row | IC50 [1] [nM] | SMILES | IC50 [nM]
1 | 200 | Cc1cc2ccccc2nc1OCc1ccc(-c2ccc(S(=O)(=O)N[C@@H](C(=O)O)C(C)C)cc2)cc1 [Example 1A, 3-Methyl-2-[4′-(3-methyl-quinolin-2-yloxymethyl)-biphenyl-4-sulfonylamino]-butyric acid] | –
2 | 800 | CC(C)[C@@H](NS(=O)(=O)c1ccc(-c2ccc(COc3ccc(C(F)(F)F)cn3)cc2)cc1)C(=O)O [Example 1B, 3-Methyl-2-[4-(5-trifluoromethyl-pyridin-2-yloxymethyl)-biphenyl-4-sulfonylamino]-butyric acid] | –
3 | 400 | Cc1cc(OCc2ccc(-c3ccc(S(=O)(=O)N[C@@H](C(=O)O)C(C)C)cc3)cc2)c2ccccc2n1 [Example 1D, D-3-Methyl-2-[4′-(2-methyl-quinolin-4-yloxymethyl)-biphenyl-4-sulfonylamino]-butyric acid] | –
4 | 600 | CC(C)[C@@H](NS(=O)(=O)c1ccc(-c2ccc(COc3ccc4ccccc4n3)cc2)cc1)C(=O)O [Example 1E] | –
5 | 1500 | CC(C)[C@@H](NS(=O)(=O)c1ccc(-c2ccc(COc3nc4ccccc4s3)cc2)cc1)C(=O)O [Example 1F, 2-[4′-(Benzothiazol-2-yloxymethyl)-biphenyl-4-sulfonylamino]-3-methyl-butyric acid] | –
6 | 230 | CC(C)[C@@H](NS(=O)(=O)c1ccc(-c2ccc(COc3cccc(C(=O)c4ccccc4)c3)cc2)cc1)C(=O)O [Example 1H] | –
7 | 1000 | Cc1c(COc2ccc(-c3ccc(S(=O)(=O)N[C@@H](C(=O)O)C(C)C)cc3)cc2)oc2ccccc12 [Example 2A, D-3-Methyl-2-[4′-(3-methyl-benzofuran-2-ylmethoxy)-biphenyl-4-sulfonylamino]-butyric acid] | –
8 | 1500 | CC(C)[C@@H](NS(=O)(=O)c1ccc(-c2ccc(OCc3cc4ccccc4o3)cc2)cc1)C(=O)O [Example 2B, D-2-[4′-(Benzofuran-2-ylmethoxy)-biphenyl-4-sulfonylamino]-3-methyl-butyric acid] | –
9 | 800 | CC(C)[C@@H](NS(=O)(=O)c1ccc(-c2ccc(OCc3ccc4ccccc4c3)cc2)cc1)C(=O)O [Example 2C, D-3-Methyl-2-[4′-(naphthalen-2-ylmethoxy)-biphenyl-4-sulfonylamino]-butyric acid] | –
10 | 5500 | CC(C)[C@@H](NS(=O)(=O)c1ccc(-c2ccc(OCc3ccccc3)cc2)cc1)C(=O)O [Example 2D, D-2-(4′-Benzyloxy-biphenyl-4-sulfonylamino)-3-methyl-butyric acid] | –
11 | 500 | Cc1cc(COc2ccc(-c3ccc(S(=O)(=O)N[C@@H](C(=O)O)C(C)C)cc3)cc2)c2ccccc2n1 [Example 2K, D-3-Methyl-2-[4′-(2-methyl-quinolin-4-ylmethoxy)-biphenyl-4-sulfonylamino]-butyric acid] | –
12 | 400 | CC(=O)NCc1ccc(-c2ccc(S(=O)(=O)N[C@@H](C(=O)O)C(C)C)cc2)cc1 [Example 5A, D-2-[4′-(Acetylamino-methyl)-biphenyl-4-sulfonylamino]-3-methyl-butyric acid] | –
13 | – | CC(C)[C@@H](NS(=O)(=O)c1ccc(-c2ccc(OC(=O)Nc3ccc(F)cc3)cc2)cc1)C(=O)O [Example 6A, 2-[4′-(4-Fluoro-phenylcarbamoyloxy)-biphenyl-4-sulfonylamino]-3-methyl-butyric acid] | 3600
14 | – | CC(C)[C@@H](NS(=O)(=O)c1ccc(-c2ccc(OC(=O)Nc3ccc(Oc4ccccc4)cc3)cc2)cc1)C(=O)O [Example 6B, D-3-Methyl-2-[4′-(4-phenoxy-phenylcarbamoyloxy)-biphenyl-4-sulfonylamino]-butyric acid] | 600
15 | – | CC(C)[C@@H](NS(=O)(=O)c1ccc(-c2ccc(OC(=O)Nc3ccc4ccccc4c3)cc2)cc1)C(=O)O [Example 6C, D-3-Methyl-2-[4′-(naphthalen-2-ylcarbamoyloxy)-biphenyl-4-sulfonylamino]-butyric acid] | 1100
16 | – | CC(C)[C@@H](NS(=O)(=O)c1ccc(-c2ccc(OC(=O)Nc3cc4ccccc4o3)cc2)cc1)C(=O)O [Example 6S, N-[(4′-{[(1-benzofuran-2-ylamino)carbonyl]oxy}-1,1′-biphenyl-4-yl)sulfonyl]-D-valine] | 4500
17 | 90 | Cc1c(C(=O)Oc2ccc(-c3ccc(S(=O)(=O)N[C@@H](C(=O)O)C(C)C)cc3)cc2)oc2ccccc12 [Example 7A, D-3-Methyl-benzofuran-2-carboxylic acid 4′-(1-carboxy-2-methyl-propylsulfamoyl)-biphenyl-4-yl ester] | –
18 | 8900 | COc1cc(-c2ccc(S(=O)(=O)N[C@@H](C(=O)O)C(C)C)cc2)ccc1OCc1ccc2ccccc2c1 [Example 11A, 3-Methyl-2-[4′-(naphthalen-2-ylmethoxy)-3′-methoxy-biphenyl-4-sulfonylamino]-butyric acid] | –
19 | 16700 | COc1cc(COc2ccc(-c3ccc(S(=O)(=O)N[C@@H](C(=O)O)C(C)C)cc3)cc2OC)cc(OC)c1 [Example 11B, 2-[4′-(3,5-Dimethoxy-benzyloxy)-3′-methoxy-biphenyl-4-sulfonylamino]-3-methyl-butyric acid] | –
20 | 200000 | CC(C)[C@@H](NS(=O)(=O)c1ccc(-c2ccc(O)cc2)cc1OC(F)(F)F)C(=O)O [Example 12A, 2-(4′-Hydroxy-3-trifluoromethoxy-biphenyl-4-sulfonylamino)-3-methyl-butyric acid] | –
21 | 67000 | CC(C)[C@@H](NS(=O)(=O)c1ccc(-c2ccc(O)cc2)cc1C(F)(F)F)C(=O)O [Example 12B, 2-(4′-Hydroxy-3-trifluoromethyl-biphenyl-4-sulfonylamino)-3-methyl-butyric acid] | –

Row | SMILES | IC50 [1] [nM] | IC50 [nM]
22 | CC(C)[C@@H](NS(=O)(=O)c1ccc(-c2ccc(OC(=O)c3cc4ccccc4o3)cc2)cc1)C(=O)O [Example 7B, Benzofuran-2-carboxylic acid 4′-(1-carboxy-2-methyl-propylsulfamoyl)-biphenyl-4-yl ester] | 345 | –
